Source: patent US20070160725A1, “Use of extracts and compounds of allium-genus plants as preservatives in the food and agri-food industries” (MOUSALA, S., L., priority 2004, published 2007)

How the values were obtained:
Total mesophilic aerobes = experiment: microbiological quality of treated hamburgers and fresh sausage: total mesophilic aerobe count
Procedure: (§1) The tests were conducted on meat products such as hamburgers and fresh sausage at different doses, with and without the usual preservatives (sulfites).
(§2) Each sample is prepared in quintuplicate and microbiological quality control over time is conducted, a triplicate of each sample being performed.
The method used to determine the number of germs per gram was the dish count number, starting from serial decimal dilutions of the sample and using the surface seeding technique.
The culture medium used was nutrient agar (Merck PCA) prepared on Petri dishes on which, from the serial decimal dilutions of the sample (from −1 . . . to −6 in Merck triptone soy broth or TSB), 0.1 mL of each one of the dilutions was transferred.
Dish incubation temperature was 31±1° C.
The final result is expressed as the total microorganism count per gram of sample (said count is performed in the dilutions in which between 30-300 colonies/dish are detected).
(§3) Two different raw meat products (sausages and hamburgers) treated with different allicin doses are prepared. • The used testing doses were: 25, 50 and 100 ppm.
(§4) Five samples of each product (hamburger and sausage) are prepared, each one of them being analyzed in triplicate.
(§5) The microbiological parameters analyzed were as follows: • Total mesophilic aerobes • Coliforms • Escherichia coli • Salmonella (presence/absence in 25 g) • Said parameters were analyzed at different times: • 0 days • 4 days • 7 days • The sample references resulted as follows: […]

Coliforms = experiment: microbiological quality of treated hamburgers and fresh sausage: coliform count (MPN)
Procedure: as §1, §2
The method used to detect lactose-positive enterobacteria (coliforms) is based on its capacity to ferment lactose with the production of acid and gas in the presence of bile salts.
To that end a count was performed in liquid medium to determine a MPN on Brilliant Green Bile Lactose Broth (Merck Brila Broth).
Said Brilliant Broth is prepared in a test tube rack with 3 series of three tubes for each one of the samples to be analyzed. Each tube contains 10 ml of Brila Broth and 1 Durham tube.
1 mL of the dilution of the sample at 1:10 or (−1) is poured into each one of the tubes of the first series.
1 mL of the dilution of the sample at 1:100 or (−2) is poured into each one of the tubes of the second series.
1 mL of the dilution of the sample at 1:1000 or (−3) is poured into each one of the tubes of the third series.
The three series are incubated at 31±1° C., taking a reading at 24 and 48 hours.
The reaction is positive when gas discharge occurs inside the Durham tube, at least in 1/10 of its volume.
The Most Probable Number (MPN) table is used with the number of positive tubes in each series, and the data is extrapolated.
The result is finally expressed as the coliform count per gram of sample.
as §3, §4, §5

Escherichia coli = experiment: microbiological quality of treated hamburgers and fresh sausage: Escherichia coli count
Procedure: as §1, §2
The positive Brila Broth tubes obtained in the coliform study are used according to the following protocol:
All the tubes having gas production are subcultured again with an inoculation loop in tubes containing 10 mL of Brila Broth (with a Durham tube), being incubated at 44.5° C. for 24-48 hours.
Once the incubation has elapsed the existence of Escherichia coli is assumed in any tube with growth and with gas formation under the previously discussed conditions.
Eosine Methylene Blue (Merck EMB) was used as a selective confirmation medium, isolating on dishes containing EMB from all the positive tubes. The occurrence of colonies measuring 2-3 mm in diameter (planar or slightly concave), with dark almost black centers occupying ¾ of the colony which, with reflected light, sometimes show a greenish metallic glow, which are most likely Escherichia coli, the confirmation of which is done by means of the indole biochemistry test.
When positive growth (gas) in Brila Broth at 44.5° C., indole production and characteristic growth on EMB agar coincide, the reading is done in the MPN table and the data is extrapolated.
The result is expressed as the number of
Escherichia coli per gram of sample.
as §3, §4, §5

[1] = hamburger, 25 ppm of allicin (H-1), t = 0 days
[2] = hamburger, 25 ppm of allicin (H-1), t = 4 days
[3] = hamburger, 50 ppm of allicin (H-2), t = 0 days
[4] = hamburger, 50 ppm of allicin (H-2), t = 4 days
[5] = hamburger, 100 ppm of allicin (H-3), t = 0 days
[6] = hamburger, 100 ppm of allicin (H-3), t = 4 days
[7] = sausage, 25 ppm of allicin (S-1), t = 0 days
[8] = sausage, 25 ppm of allicin (S-1), t = 4 days
[9] = sausage, 50 ppm of allicin (S-2), t = 0 days
[10] = sausage, 50 ppm of allicin (S-2), t = 4 days
[11] = sausage, 100 ppm of allicin (S-3), t = 0 days
[12] = sausage, 100 ppm of allicin (S-3), t = 4 days

C=CCS[S+]([O-])CC=C (stereo not shown) [Allicin, allyl allylthiosulfinate]
reduction of total mesophilic aerobes with respect to untreated controls (Total mesophilic aerobes; allicin 100 ppm, all sausage samples and hamburgers, maintained from 0 to 4 days): reduction of one logarithmic unit
Total aerobes (Total mesophilic aerobes; [1]): 2.17 × 10^6 cfu/g
Total aerobes (Total mesophilic aerobes; [2]): 1.56 × 10^8 cfu/g
Total aerobes (Total mesophilic aerobes; [3]): 9.01 × 10^5 cfu/g
Total aerobes (Total mesophilic aerobes; [4]): 6.23 × 10^7 cfu/g
Total aerobes (Total mesophilic aerobes; [5]): 4.08 × 10^5 cfu/g
Total aerobes (Total mesophilic aerobes; [6]): 3.17 × 10^7 cfu/g
Total aerobes (Total mesophilic aerobes; [7]): 2.24 × 10^5 cfu/g
Total aerobes (Total mesophilic aerobes; [8]): 3.08 × 10^6 cfu/g
Total aerobes (Total mesophilic aerobes; [9]): 8.99 × 10^4 cfu/g
Total aerobes (Total mesophilic aerobes; [10]): 2.72 × 10^6 cfu/g
Total aerobes (Total mesophilic aerobes; [11]): 6.06 × 10^4 cfu/g
Total aerobes (Total mesophilic aerobes; [12]): 3.10 × 10^5 cfu/g
Coliforms (Coliforms; [1]): 150 cfu/g
Coliforms (Coliforms; [2]): >2400 cfu/g
Coliforms (Coliforms; [3]): 150 cfu/g
Coliforms (Coliforms; [4]): 1100 cfu/g
Coliforms (Coliforms; [5]): 150 cfu/g
Coliforms (Coliforms; [6]): 150 cfu/g
Coliforms (Coliforms; [7]): 3 cfu/g
Coliforms (Coliforms; [8]): 21 cfu/g
Coliforms (Coliforms; [9]): <3 cfu/g
Coliforms (Coliforms; [10]): 7 cfu/g
Coliforms (Coliforms; [11]): <3 cfu/g
Coliforms (Coliforms; [12]): <3 cfu/g
Escherichia coli (Escherichia coli; [1]): 23 cfu/g
Escherichia coli (Escherichia coli; [2]): 150 cfu/g
Escherichia coli (Escherichia coli; [3]): 23 cfu/g
Escherichia coli (Escherichia coli; [4]): 150 cfu/g
Escherichia coli (Escherichia coli; [5]): 23 cfu/g
Escherichia coli (Escherichia coli; [6]): 43 cfu/g
Escherichia coli (Escherichia coli; [7]): <3 cfu/g
Escherichia coli (Escherichia coli; [8]): 4 cfu/g
Escherichia coli (Escherichia coli; [9]): <3 cfu/g
Escherichia coli (Escherichia coli; [10]): 4 cfu/g
Escherichia coli (Escherichia coli; [11]): <3 cfu/g
Escherichia coli (Escherichia coli; [12]): <3 cfu/g
